According to PubChem BioAssay AID1963875 (Molecular Pharmacology Branch, DTP, NCI, 2024):

System: KRAS-mutant PDC complex spheroid viability
Test: Anticancer human tumor 186277-243-T-J2-PDC patient-derived colon adenocarcinoma cell line growth inhibition [KRAS2]
Settings: for IC50: curve of first compound; for viability, T/C: stronger effect = lower value
Procedure, shortened: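 Combination screen of spheroid viability in tumor-cell co-cultures with endothelial (HUVEC) and mesenchymal stem cell stroma. Each agent was tested in half-log dilutions, topping at clinical Cmax or at 10 microM without a known Cmax.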

[1] = second compound 0.1 µM, first compound 0.0316 µM
[2] = second compound 0.1 µM, first compound 0.1 µM
[3] = second compound 0.1 µM, first compound 0.316 µM
[4] = second compound 0.1 µM, first compound 1 µM
[5] = second compound 0.1 µM, first compound 3.16 µM
[6] = second compound 0.316 µM, first compound 0.0316 µM
[7] = second compound 0.316 µM, first compound 0.1 µM
[8] = second compound 0.316 µM, first compound 0.316 µM
[9] = second compound 0.316 µM, first compound 1 µM
[10] = second compound 0.316 µM, first compound 3.16 µM
[11] = second compound 1 µM, first compound 0.0316 µM
[12] = second compound 1 µM, first compound 0.1 µM
[13] = second compound 1 µM, first compound 0.316 µM
[14] = second compound 1 µM, first compound 1 µM
[15] = second compound 1 µM, first compound 3.16 µM
[16] = second compound 3.16 µM, first compound 0.0316 µM
[17] = second compound 3.16 µM, first compound 0.1 µM
[18] = second compound 3.16 µM, first compound 0.316 µM
[19] = second compound 3.16 µM, first compound 1 µM
[20] = second compound 3.16 µM, first compound 3.16 µM
[21] = second compound 10 µM, first compound 0.0316 µM
[22] = second compound 10 µM, first compound 0.1 µM
[23] = second compound 10 µM, first compound 0.316 µM
[24] = second compound 10 µM, first compound 1 µM
[25] = second compound 10 µM, first compound 3.16 µM
[26] = second compound 0.1 µM, first compound 10 µM
[27] = second compound 0.316 µM, first compound 10 µM
[28] = second compound 1 µM, first compound 10 µM
[29] = second compound 3.16 µM, first compound 10 µM
[30] = second compound 10 µM, first compound 10 µM
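Throughout, for viability, T/C: viability read after seven days of compound exposure; 100% = DMSO vehicle-treated spheroids so lower means less viable.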

| SMILES | IC50 (second compound 0.1 µM) [nM] | IC50 (second compound 0.316 µM) [nM] | IC50 (second compound 1 µM) [nM] | IC50 (second compound 3.16 µM) [nM] | IC50 (second compound 10 µM) [nM] | viability, T/C [1] [%] | viability, T/C [2] [%] | viability, T/C [3] [%] | viability, T/C [4] [%] | viability, T/C [5] [%] | viability, T/C [6] [%] | viability, T/C [7] [%] | viability, T/C [8] [%] | viability, T/C [9] [%] | viability, T/C [10] [%] | viability, T/C [11] [%] | viability, T/C [12] [%] | viability, T/C [13] [%] | viability, T/C [14] [%] | viability, T/C [15] [%] | further results |
| --- | --- | --- | --- | --- | --- | --- | --- | --- | --- | --- | --- | --- | --- | --- | --- | --- | --- | --- | --- | --- | --- |
| CC1COCCN1c1cc(-c2ccnn2C)c2ccnc(-c3ccn[nH]3)c2n1 (stereo not given) + COc1cc2nc(C)nc(NC(C)c3cc(N)cc(C(F)(F)F)c3)c2cc1OC1CCOC1 | < 10 | 21.2 | 19.9 | 19.9 | 18.9 | 4.38 | 3.41 | 2.71 | 2.04 | 1.41 | 24.3 | 3.67 | 2.88 | 2.23 | 3.71 | 17.2 | 4.4 | 3.51 | 3.19 | 3.55 | viability, T/C (second compound 0.1 µM, first compound 0.01 µM): 5.03%; viability, T/C (second compound 0.316 µM, first compound 0.01 µM): 98.5%; viability, T/C (second compound 1 µM, first compound 0.01 µM): 98.9%; viability, T/C (second compound 3.16 µM, first compound 0.01 µM): 99.5%; viability, T/C [16]: 16.4%; viability, T/C [17]: 3.55%; viability, T/C [18]: 2.87%; viability, T/C [19]: 1.93%; viability, T/C [20]: 3.19%; viability, T/C (second compound 10 µM, first compound 0.01 µM): 103%; viability, T/C [21]: 7.22%; viability, T/C [22]: 3.43%; viability, T/C [23]: 2.48%; viability, T/C [24]: 2.25%; viability, T/C [25]: 2.72% |
| CC1OCC2(CCN(c3cnc(Sc4ccnc(N)c4Cl)c(N)n3)CC2)C1N (stereo not given) + COc1cc2nc(C)nc(NC(C)c3cc(N)cc(C(F)(F)F)c3)c2cc1OC1CCOC1 | > 10000 | > 10000 | > 10000 | > 10000 | 1520 | 103 | 96.1 | 104 | 108 | 109 | 106 | 104 | 93.9 | 100 | 115 | 99.9 | 101 | 103 | 104 | 114 | viability, T/C [26]: 112%; viability, T/C [27]: 98.1%; viability, T/C [28]: 85.4%; viability, T/C [16]: 98.9%; viability, T/C [17]: 87.6%; viability, T/C [18]: 96.7%; viability, T/C [19]: 114%; viability, T/C [20]: 111%; viability, T/C [29]: 78.8%; viability, T/C [21]: 93.6%; viability, T/C [22]: 96.7%; viability, T/C [23]: 93.5%; viability, T/C [24]: 50.5%; viability, T/C [25]: 39%; viability, T/C [30]: 9.31% |
| CCNC(=O)CC1N=C(c2ccc(Cl)cc2)c2cc(OC)ccc2-n2c(C)nnc21 (stereo not given) + COc1cc2nc(C)nc(NC(C)c3cc(N)cc(C(F)(F)F)c3)c2cc1OC1CCOC1 | 1910 | 1310 | 1160 | 751 | 229 | 100 | 103 | 139 | 84.7 | 26.7 | 102 | 89.2 | 124 | 57.1 | 28.9 | 93.4 | 108 | 123 | 55 | 24.3 | viability, T/C [26]: 18.8%; viability, T/C [27]: 24.5%; viability, T/C [28]: 6.44%; viability, T/C [16]: 84.8%; viability, T/C [17]: 110%; viability, T/C [18]: 107%; viability, T/C [19]: 33.3%; viability, T/C [20]: 13.5%; viability, T/C [29]: 14.2%; viability, T/C [21]: 90.5%; viability, T/C [22]: 90.9%; viability, T/C [23]: 34.2%; viability, T/C [24]: 2.69%; viability, T/C [25]: 0.68%; viability, T/C [30]: 0.42% |
| Cn1nccc1Nc1nccc(-c2cc3c(s2)C(C)(C)N(CCN2CCOCC2)C3=O)n1 + COc1cc2nc(C)nc(NC(C)c3cc(N)cc(C(F)(F)F)c3)c2cc1OC1CCOC1 | 266 | 301 | 220 | 193 | 75.7 | 90.7 | 105 | 41.4 | 9.64 | 5.24 | 93.1 | 97.9 | 48 | 9 | 4.51 | 92.2 | 100 | 28.7 | 6.92 | 3.64 | viability, T/C [26]: 5.34%; viability, T/C [27]: 4.67%; viability, T/C [28]: 4.79%; viability, T/C [16]: 91.6%; viability, T/C [17]: 85.6%; viability, T/C [18]: 23.2%; viability, T/C [19]: 7.66%; viability, T/C [20]: 4.43%; viability, T/C [29]: 4.37%; viability, T/C [21]: 86.1%; viability, T/C [22]: 38.5%; viability, T/C [23]: 4.06%; viability, T/C [24]: 1.74%; viability, T/C [25]: 0.34%; viability, T/C [30]: 0.22% |
